Laboratory results reported in patent US8513250B2 (Laboratoire Biodim, priority 2007, dated 2013).
Read-outs that look alike come from different tables or passages of the source.

Tests used:
S. agalactiae NEM316 WT [1] = assay: Minimal Antivirulent Concentration (MAC) assay, sensitization of bacteria to colistin; assay type: cell-based; settings: S. agalactiae wt strain, in presence of colistin 32 μg/ml, overnight, no visible growth
Description: The readout of the assay is called Minimum antivirulent concentration (MAC) and represents the minimal dose of compound for which no visible bacterial growth is observed in the presence of colistin at a subinhibitory concentration. MAC assay is described in Method 3 hereinafter.
Method 3: Assay for Minimal Antivirulent Concentration (MAC) and Minimal Inhibitory Concentration (MIC): Determination of Compounds Activity for Sensitization of Bacteria to Cationic Peptide (Colistin)
The Gram positive bacteria S. agalactiae NEM316 WT are grown on tryptic soy agar (TSA) broth over-night at 37° C. with air enriched with 5% CO2. Ten to fifteen colonies isolated from over-night growth on agar are then added to 10 ml of TS media to produce a standard suspension of organisms. This pre-culture is incubated at 37° C. with constant shaking during two to three hours to reach the exponential phase. This suspension is diluted to obtain a final inoculum of 1E+04 CFU/ml. Viable counts are obtained by plating 10 to 1000-fold dilutions of the suspension on TSA.
According to our standardized conditions, the final volume in the well is 100 μl in a 96-well microplate. Compounds are tested in a range of 1 to 32 μg/mL. Each well contains 2 μl of compound diluted in 100% DMSO, 48 μl of TS (microplate without colistin) or 48 μl of colistin in TS (final concentration of colistin is 32 μg/ml for S. agalactiae), then […] (final inoculum of 1 E+04 CFU/ml). Final concentration of DMSO is 2%. Positive growth control wells for each organism are prepared with and without colistin and DMSO 2% final concentration. S. agalactiae NEM316 Δdlt is used in control wells to verify the effect of the colistin on a sensitive strain.
The microplates are then incubated overnight at 37° C. with 5% CO2. Visible bacterial growth is finally quantified by unaided eye.
The MAC of each compound is derived from the experiment in presence of colistin and is defined as the minimal concentration of compound for which no bacterial visible growth is observed.

DltA enzyme = target: T1, DltA enzyme (Streptococcus agalactiae serotype III, UniProt Q8VM67); assay: DltA HTS assays (luminescent / fluorescent), inhibition of DltA enzymatic activity in vitro; assay type: biochemical, S. agalactiae; settings: Table 1; DltA inhibition, HTS assays of method 1; read-out: IC50
T1 construct: His-tag (from pET100 vector) (N); made in house; host or cells: E. coli BL21 (DE3) Star
T1 sequence (Q8VM67 1-511): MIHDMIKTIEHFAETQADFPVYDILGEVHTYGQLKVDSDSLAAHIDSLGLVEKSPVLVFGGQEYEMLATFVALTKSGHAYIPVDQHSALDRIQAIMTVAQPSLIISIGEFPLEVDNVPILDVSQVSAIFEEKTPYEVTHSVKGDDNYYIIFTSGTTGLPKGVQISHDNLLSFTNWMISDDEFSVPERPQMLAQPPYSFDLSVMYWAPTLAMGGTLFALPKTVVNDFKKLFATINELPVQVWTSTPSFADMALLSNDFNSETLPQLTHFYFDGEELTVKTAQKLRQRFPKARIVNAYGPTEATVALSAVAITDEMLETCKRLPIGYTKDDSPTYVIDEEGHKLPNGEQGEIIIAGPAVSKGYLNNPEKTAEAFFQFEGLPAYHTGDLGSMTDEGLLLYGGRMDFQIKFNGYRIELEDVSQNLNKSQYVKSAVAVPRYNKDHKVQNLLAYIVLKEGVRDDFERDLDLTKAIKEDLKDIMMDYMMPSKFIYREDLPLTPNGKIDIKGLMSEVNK
Description: The compounds effect on DltA enzyme has been based on the measure of the inhibition of DltA activity in vitro.
To this end, a recombinant protein Dlta was expressed and purified after cloning of the gene of S. agalatiae as described below:
Methods 1: DltA HTS Assays
The assay described below makes use of dithiothreitol (DTT) instead of DltC as reactive thiol in the catalyzed reaction. In fact, the inventors have shown that DTT, but also Coenzyme A and N-Acetylcysteamine are all thiols able to replace efficiently DltC. In addition, contrary to the prior art, radioactivity is not used: all the assays are based either on luminescent ATP detection, or on fluorescent AMP detection. They are easily amenable to miniaturized formats and fast readouts as required by HTS.
The assay buffer “AB” contains 50 mM Hepes pH8.0, 10 mM MgCl2, 50 mM KCl, 0.012% Triton-X100. The following components are added in a white polystyrene Costar plate up to a final volume of 30 μL: 3 μL DMSO, or inhibitor dissolved in DMSO and 27 μL DltA enzyme and DTT in AB. After 30 min of pre-incubation at room temperature, 30 μL of Substrates mix in AB are added in each well to a final volume of 60 μL. This reaction mixture is then composed of 10 nM DltA (produced in house from S. agalactiae), 0.5 mM D-Alanine (Sigma), 0.5 μM ATP (Sigma) and 1 mM DTT (Biochemika) in assay buffer. After 90 min of incubation at room temperature, 30 μL of the revelation mix are added to a final volume of 90 μL, including the following constituents at the respective final concentrations: 2 nM luciferase (Sigma), 30 μM D-luciferin (Sigma), 100 μM N-acetylcysteamine (Aldrich). Luminescence intensity is immediately measured on an Analyst-HT (Molecular Devices) and converted into inhibition percentages. For IC50 (Inhibitory Concentration 50%) determinations, the inhibitor is added at 6 to 10 different concentrations, and the related inhibitions are fitted to a classical langmuir equilibrium model using XLFIT (IDBS).
The assay buffer “AB” contains 50 mM Hepes pH8.0, 10 mM MgCl2, 50 mM KCl, 0.012% Triton-X100. The following components are added in a black polystyrene Costar plate up to a final volume of 50 μL: 5 μL DMSO, or inhibitor dissolved in DMSO and 45 μL DltA enzyme and DTT in AB. After 30 min of pre-incubation at room temperature, 50 μL of Substrates-revelation mix in AB are added in each well to a final volume of 100 μL. This reaction mixture is then composed of 5 nM DltA (produced in house from S. agalactiae), 0.5 mM D-Alanine (Sigma), 10 μM ATP (Sigma), 1 mM DTT (Biochemika), 10 nM Adenylate kinase (produced in house), 5 u/mL Pyruvate Kinase (Sigma), 50 μM phosphoenolpyruvate (Sigma), 5 u/mL Lactate deshydrogenase (Sigma) and 3 μM NADH (Sigma) in assay buffer. Fluorescence intensity of NADH (λex=360 nm, λem=520 nm) is immediately measured kinetically by a Fluostar Optima (BMG). Inhibition percentages are derived from fitted initial velocities. For IC50 determinations, the inhibitor is added at 6 to 10 different concentrations, and the related inhibitions are fitted to a classical langmuir equilibrium model using XLFIT (IDBS). FIG. 2 represents the data obtained using this method.
The capacity of compounds to inhibit DltA enzymatic activity was assessed using the DltA HTS assays described in method 1.

S. agalactiae NEM316 WT [2] = assay: Minimal Inhibitory Concentration (MIC) assay, absence of colistin; assay type: cell-based; settings: Streptococcus agalactiae, NEM316WT
[3] = test system: S. agalactiae strain NEM316; assay: Experimental model of systemic infection in mice, organ bacteraemia at 48 h; assay type: in vivo; settings: BALB/c mice, i.v. infection, compound intraperitoneal immediately after infection, spleen bacteraemia 48 h
Experimental: The effect of DltA inhibitors on the bacteria during an infection was assessed by injecting the molecules at different doses in group of mice that have received an infective dose of bacteria.
Description of Experimental Models Used to Assess the Efficacy of Inhibitors In Vivo:
Briefly, in vivo studies were performed using 4-5-week-old female BALB/c@Rj nice. S. agalactiae strain NEM316 bacteria were grown to exponential phase in broth culture. 200 μl of a bacterial suspension of 3.10^7 CFU/ml were administered by intravenous injection to groups of six mice (6.10^6 CFU/mouse). Exact inoculums counts were determined by plating 10-fold dilutions of the suspension on TH agar plates immediately after inoculation.
The compounds to be assessed are dissolved and diluted to obtain different concentration in a solution containing solutol; and 400 μl of each compound solution is injected intraperinonaly immediately after infection of the mouse. […]
The antibacterial effect obtained with different concentrations of compounds is measured by the level of bacteraemia observed at 48 H.
The graphs represent the average value of the organ bacteremia that is determined by the number of UFC/mg of organs (spleen) at 48 h post infection, obtained for each group of mice that have received different concentration of compounds (expressed in mg/kg). […]

S. aureus strain 54.316 = assay: Colistin activity on S. aureus; assay type: cell-based
Description: (§1) The peptide used was colistin which mimicks the effect of antibacterial cationic peptide of innate immunity. In common with other polymixins, colistin is rapidly bactericidal and exerts its effect by acting as a cationic detergent, causing disruption of the integrity of the bacterial cell membrane, with leakage of intracellular contents and cell death.

[4] = test system: dltA defective mutant of S. agalactiae; assay: Colistin activity on dltA defective mutant; assay type: cell-based
Description: as §1

[5] = test system: S. agalactiae strain NEM316; assay: Colistin activity on wild type S. agalactiae; assay type: cell-based
Description: as §1

[6] = S. agalactiae wt strain, absence of colistin, overnight, no visible growth, read-out: MIC SAG wt

Compound	MAC (S. agalactiae NEM316 WT [1]) [µg/mL]	IC50 (DltA enzyme) [nM]	MIC (S. agalactiae NEM316 WT [2]; [6]) [µg/mL]	effective concentration [3] [mg/kg]	MIC (S. aureus strain 54.316) [µg/mL]	dose that can inhibit totally the growth [4] [µg/mL]	MIC ([5]; S. agalactiae strain NEM316 wild type) [µg/mL]	effect on the wild type strain growth ([5]; colistin 32 μg/ml, S. agalactiae wild type)	MIC (S. agalactiae NEM316 WT [2]; read-out: MIC SAG wt (μg/ml)) [µg/mL]
Cc1cc(-c2cnc3c(NCCCO)nc4cc(C(F)(F)F)ccc4n23)[nH]n1 [Example 39, 3-({1-[3-methyl-1H-pyrazol-5-yl]-7-(trifluoromethyl)imidazo[1,2-a]quinoxalin-4-yl}amino)propan-1-ol]	8	13.5	> 32						
CNC(=O)c1cc(-c2cnc3c(NCCCO)nc4cc(C(F)(F)F)ccc4n23)[nH]n1 [Example 50, 5-{4-[(3-hydroxypropyl)amino]-7-(trifluoromethyl)imidazo[1,2-a]quinoxalin-1-yl}-N-methyl-1H-pyrazole-3-carboxamide]	8	38	> 32						
OCCCNc1nc2cc(OC(F)(F)F)ccc2n2c(-c3ccn[nH]3)cnc12 [Example 51, 3-{[1-(1H-pyrazol-5-yl)-7-(trifluoromethoxy)imidazo[1,2-a]quinoxalin-4-yl]amino}propan-1-ol]	2	9	> 32						
OCCCNc1nc2cc(C(F)(F)F)ccc2n2c(-c3cccc(CO)c3)cnc12 [Example 16, 3-({1-[3-(hydroxymethyl)phenyl]-7-(trifluoromethyl)imidazo[1,2-a]quinoxalin-4-yl}amino)propan-1-ol]	8	520	> 32						
CC(C)(C)c1cc(-c2cnc3c(NCCCO)nc4cc(C(F)(F)F)ccc4n23)[nH]n1 [Example 36, 3-({1-[3-tert-butyl-1H-pyrazol-5-yl]-7-(trifluoromethyl)imidazo[1,2-a]quinoxalin-4-yl}amino)propan-1-ol]	4	49	> 32						
OCCCNc1nc2cc(C(F)(F)F)ccc2n2c(-c3ccn[nH]3)cnc12 [Example 19, 3-{[1-(1H-pyrazol-5-yl)-7-(trifluoromethyl)imidazo[1,2-a]quinoxalin-4-yl]amino}propan-1-ol]	2	9	> 32	10					
colistin					≥ 1024	32	≥ 1024	without effect	
CCOC(=O)c1cc(-c2cnc3c(NCCCO)nc4cc(C(F)(F)F)ccc4n23)[nH]n1 [Example 47, 5-[4-(3-Hydroxy-propylamino)-7-trifluoromethyl-imidazo[1,2-a]quinoxalin-1-yl]-1H-pyrazole-3-carboxylic acid ethyl ester]	8	35	> 32						
OCCCNc1nc2cc(C(F)(F)F)ccc2n2c(-c3cnn[nH]3)cnc12 [Example 35, 3-{[1-(1H-1,2,3-triazol-5-yl)-7-(trifluoromethyl)imidazo[1,2-a]quinoxalin-4-yl]amino}propan-1-ol]	2	270							> 32
